Calls of active or inactive are those of the source. The calls are words filed in the database; no cut-off is given here.
What was measured:
[1] = biological target: T1, Proteasome Macropain subunit MB1 (Homo sapiens) (UniProt P28074); assay: Displacement of fluorescent labeled MV151 from 26S proteasome beta 5 in human HEK293 cell lysate assessed as residual activity at 100 uM after 1 hr by SDS-PAGE; assay type: cell-free
T1 sequence (whole entry): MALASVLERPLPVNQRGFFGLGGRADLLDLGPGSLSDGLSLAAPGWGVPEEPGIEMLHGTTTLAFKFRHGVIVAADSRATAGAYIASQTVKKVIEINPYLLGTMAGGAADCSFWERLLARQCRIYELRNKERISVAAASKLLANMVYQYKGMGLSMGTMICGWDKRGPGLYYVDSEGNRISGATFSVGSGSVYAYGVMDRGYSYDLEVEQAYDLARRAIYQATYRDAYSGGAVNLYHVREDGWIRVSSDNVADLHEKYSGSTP

[2] = biological target: T2, Proteasome component C5 (Homo sapiens) (UniProt P20618); assay: Inhibition of 26S proteasome beta 1 in human HEK293 cell lysate assessed as residual activity at 13.5 uM after 1 hr; assay type: cell-free
T2 sequence (whole entry): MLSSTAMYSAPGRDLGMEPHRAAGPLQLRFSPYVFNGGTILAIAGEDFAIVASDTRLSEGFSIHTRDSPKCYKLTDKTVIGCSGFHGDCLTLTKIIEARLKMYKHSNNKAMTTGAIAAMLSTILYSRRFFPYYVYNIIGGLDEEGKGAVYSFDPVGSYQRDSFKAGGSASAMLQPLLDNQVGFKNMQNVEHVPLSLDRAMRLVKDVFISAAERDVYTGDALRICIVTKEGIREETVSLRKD

[3] = biological target: T2, Proteasome component C5 (Homo sapiens); assay: (§1) Inhibition of 26S proteasome beta 1 in human HEK293 cell lysate assessed as residual activity at […] after 1 hr; assay type: cell-free
[4] = biological target: T2, Proteasome component C5 (Homo sapiens); assay: Inhibition of 26S proteasome beta 1 in human HEK293 cell lysate assessed as residual activity at 1.5 uM after 1 hr; assay type: cell-free
[5] = biological target: T2, Proteasome component C5 (Homo sapiens); assay: Inhibition of 26S proteasome beta 1 in human HEK293 cell lysate assessed as residual activity at 0.5 uM after 1 hr; assay type: cell-free
[6] = biological target: T2, Proteasome component C5 (Homo sapiens); assay: Inhibition of 26S proteasome beta 1 in human HEK293 cell lysate assessed as residual activity at 0.167 uM after 1 hr; assay type: cell-free
[7] = biological target: T2, Proteasome component C5 (Homo sapiens); assay: as §1; assay type: cell-free; remark: listed apart in the source
[8] = biological target: Proteasome Macropain subunit (Homo sapiens) (UniProt P49721); assay: (§2) Inhibition of 26S proteasome beta 2 in human HEK293 cell lysate assessed as residual activity at […] after 1 hr; assay type: cell-free
[9] = biological target: Proteasome Macropain subunit (Homo sapiens) (UniProt P49721); assay: Inhibition of 26S proteasome beta 2 in human HEK293 cell lysate assessed as residual activity at 1.5 uM after 1 hr; assay type: cell-free
[10] = biological target: Proteasome Macropain subunit (Homo sapiens) (UniProt P49721); assay: Inhibition of 26S proteasome beta 2 in human HEK293 cell lysate assessed as residual activity at 0.5 uM after 1 hr; assay type: cell-free
[11] = biological target: Proteasome Macropain subunit (Homo sapiens) (UniProt P49721); assay: Inhibition of 26S proteasome beta 2 in human HEK293 cell lysate assessed as residual activity at 0.167 uM after 1 hr; assay type: cell-free
[12] = biological target: Proteasome Macropain subunit (Homo sapiens) (UniProt P49721); assay: as §2; assay type: cell-free; remark: listed apart in the source
[13] = biological target: Proteasome Macropain subunit (Homo sapiens) (UniProt P49721); assay: Inhibition of 26S proteasome beta 2 in human HEK293 cell lysate assessed as residual activity at 13.5 uM after 1 hr; assay type: cell-free
[14] = biological target: T2, Proteasome component C5 (Homo sapiens); assay: Displacement of fluorescent labeled MV151 from 26S proteasome beta 1 in human HEK293 cell lysate assessed as residual activity at 1 uM after 1 hr by SDS-PAGE; assay type: cell-free
[15] = biological target: T2, Proteasome component C5 (Homo sapiens); assay: Displacement of fluorescent labeled MV151 from 26S proteasome beta 1 in human HEK293 cell lysate assessed as residual activity at 100 uM after 1 hr by SDS-PAGE; assay type: cell-free
[16] = biological target: Proteasome Macropain subunit (Homo sapiens) (UniProt P49721); assay: Displacement of fluorescent labeled MV151 from 26S proteasome beta 2 in human HEK293 cell lysate assessed as residual activity at 1 uM after 1 hr by SDS-PAGE; assay type: cell-free
[17] = biological target: Proteasome Macropain subunit (Homo sapiens) (UniProt P49721); assay: Displacement of fluorescent labeled MV151 from 26S proteasome beta 2 in human HEK293 cell lysate assessed as residual activity at 100 uM after 1 hr by SDS-PAGE; assay type: cell-free
[18] = biological target: T1, Proteasome Macropain subunit MB1 (Homo sapiens); assay: Displacement of fluorescent labeled MV151 from 26S proteasome beta 5 in human HEK293 cell lysate assessed as residual activity at 1 uM after 1 hr by SDS-PAGE; assay type: cell-free
[19] = biological target: Proteasome subunit beta type-5 (Homo sapiens) (UniProt P28074); assay: Inhibition of 26S proteasome beta 5 in human HEK293 cell lysate assessed as residual activity at […] after 1 hr
[20] = biological target: Proteasome subunit beta type-5 (Homo sapiens) (UniProt P28074); assay: as above; remark: listed apart in the source
[21] = biological target: Proteasome subunit beta type-5 (Homo sapiens) (UniProt P28074); assay: Inhibition of 26S proteasome beta 5 in human HEK293 cell lysate assessed as residual activity at 1.5 uM after 1 hr
[22] = biological target: Proteasome subunit beta type-5 (Homo sapiens) (UniProt P28074); assay: Inhibition of 26S proteasome beta 5 in human HEK293 cell lysate assessed as residual activity at 0.5 uM after 1 hr
[23] = biological target: Proteasome subunit beta type-5 (Homo sapiens) (UniProt P28074); assay: Inhibition of 26S proteasome beta 5 in human HEK293 cell lysate assessed as residual activity at 13.5 uM after 1 hr
[24] = biological target: Proteasome subunit beta type-5 (Homo sapiens) (UniProt P28074); assay: Inhibition of 26S proteasome beta 5 in human HEK293 cell lysate assessed as residual activity at 0.167 uM after 1 hr
[25] = biological target: T2, Proteasome component C5 (Homo sapiens); assay: Inhibition of 26S proteasome beta 1 in human HEK293 cell lysate assessed as residual activity at 0.019 uM after 1 hr; assay type: cell-free
[26] = biological target: T2, Proteasome component C5 (Homo sapiens); assay: Inhibition of 26S proteasome beta 1 in human HEK293 cell lysate assessed as residual activity at 0.002 uM after 1 hr; assay type: cell-free
[27] = biological target: T2, Proteasome component C5 (Homo sapiens); assay: Inhibition of 26S proteasome beta 1 in human HEK293 cell lysate assessed as residual activity at 0.001 uM after 1 hr; assay type: cell-free
[28] = biological target: Proteasome Macropain subunit (Homo sapiens) (UniProt P49721); assay: Inhibition of 26S proteasome beta 2 in human HEK293 cell lysate assessed as residual activity at 0.019 uM after 1 hr; assay type: cell-free
[29] = biological target: Proteasome Macropain subunit (Homo sapiens) (UniProt P49721); assay: Inhibition of 26S proteasome beta 2 in human HEK293 cell lysate assessed as residual activity at 0.006 uM after 1 hr; assay type: cell-free
[30] = biological target: Proteasome Macropain subunit (Homo sapiens) (UniProt P49721); assay: Inhibition of 26S proteasome beta 2 in human HEK293 cell lysate assessed as residual activity at 0.002 uM after 1 hr; assay type: cell-free
[31] = biological target: Proteasome Macropain subunit (Homo sapiens) (UniProt P49721); assay: Inhibition of 26S proteasome beta 2 in human HEK293 cell lysate assessed as residual activity at 0.001 uM after 1 hr; assay type: cell-free
[32] = biological target: T2, Proteasome component C5 (Homo sapiens); assay: Inhibition of 26S proteasome beta 1 in human HEK293 cell lysate assessed as residual activity at 0.006 uM after 1 hr; assay type: cell-free
[33] = biological target: T2, Proteasome component C5 (Homo sapiens); assay: Displacement of fluorescent labeled MV151 from 26S proteasome beta 1 in human HEK293 cell lysate assessed as disappearance of band at 0.1 to 1 uM after 1 hr by SDS-PAGE; assay type: cell-free
[34] = biological target: T1, Proteasome Macropain subunit MB1 (Homo sapiens); assay: Displacement of fluorescent labeled MV151 from 26S proteasome beta 5 in human HEK293 cell lysate assessed as disappearance of band at 0.1 to 1 uM after 1 hr by SDS-PAGE; assay type: cell-free

Chain of Proteasome Macropain subunit (Homo sapiens) (P49721 whole entry): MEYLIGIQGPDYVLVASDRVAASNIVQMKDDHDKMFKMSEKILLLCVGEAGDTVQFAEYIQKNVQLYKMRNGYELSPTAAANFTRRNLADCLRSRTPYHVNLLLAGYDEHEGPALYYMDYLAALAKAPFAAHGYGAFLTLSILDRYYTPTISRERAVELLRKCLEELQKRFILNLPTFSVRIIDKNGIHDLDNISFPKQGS

| Activity [1] [%] | Activity [14] [%] | Activity [15] [%] | Activity [16] [%] | Activity [17] [%] | Activity [18] [%] | SMILES | Activity [2] [%] | Activity [3] [%] | Activity [4] [%] | Activity [5] [%] | Activity [6] [%] | Activity [7] [%] | Activity [8] [%] | Activity [9] [%] | Activity [10] [%] | Activity [11] [%] | Activity [12] [%] | Activity [13] [%] | also measured |
| --- | --- | --- | --- | --- | --- | --- | --- | --- | --- | --- | --- | --- | --- | --- | --- | --- | --- | --- | --- |
| 31 | 192 | 100 | 48 | 149 | 79 | CC(C)C[C@H](NC(=O)[C@H](Cc1cc(C(F)(F)F)cc(C(F)(F)F)c1)NC(=O)[C@H](Cc1cc(C(F)(F)F)cc(C(F)(F)F)c1)NC(=O)[C@H](Cc1ccccc1)N=[N+]=[N-])C(=O)[C@@]1(C)CO1 | – | – | – | – | – | – | – | – | – | – | – | – | – |
| 7.4 | 148 | 115 | 20.4 | 43.2 | 94.9 | CC(C)C[C@H](NC(=O)[C@H](Cc1c(F)c(F)c(F)c(F)c1F)NC(=O)[C@H](Cc1c(F)c(F)c(F)c(F)c1F)NC(=O)[C@H](Cc1ccccc1)N=[N+]=[N-])C(=O)[C@@]1(C)CO1 | – | – | – | – | – | – | – | – | – | – | – | – | – |
| – | – | – | – | – | – | CC(C)C[C@H](NC(=O)[C@H](Cc1c(F)c(F)c(F)c(F)c1F)NC(=O)c1cnccn1)B1OC2C[C@@H]3C[C@@H](C3(C)C)[C@]2(C)O1 (stereo partly drawn) | 1.3 | 3.1 | 12 | 40.4 | 68.7 | 92.1 | 118 | 135 | 118 | 121 | 118 | 110 | Activity [25]: 99.5%; Activity [26]: 96.1%; Activity [27]: 110%; Activity [28]: 102%; Activity [29]: 104%; Activity [30]: 99%; Activity [31]: 110%; Activity [32]: 97.5%; Activity [33]: Active; Activity [34]: Active |

| SMILES | Activity [1] [%] | Activity [14] [%] | Activity [15] [%] | Activity [16] [%] | Activity [17] [%] | Activity [18] [%] | Activity [2] [%] | Activity [3] [%] | Activity [4] [%] | Activity [5] [%] | Activity [6] [%] | Activity [7] [%] | Activity [8] [%] | Activity [9] [%] | Activity [10] [%] | Activity [11] [%] | Activity [12] [%] | Activity [13] [%] | also measured |
| --- | --- | --- | --- | --- | --- | --- | --- | --- | --- | --- | --- | --- | --- | --- | --- | --- | --- | --- | --- |
| CC(C)C[C@H](NC(=O)[C@H](Cc1ccccc1)NC(=O)[C@H](Cc1c(F)c(F)c(F)c(F)c1F)NC(=O)[C@H](Cc1ccccc1)N=[N+]=[N-])C(=O)[C@@]1(C)CO1 | 0.83 | 82.1 | 87.6 | 2.9 | 56.9 | 89.1 | 73.1 | 102 | 115 | 103 | 89.4 | 83.2 | 119 | 127 | 118 | 89.9 | 98.7 | 98.4 | Activity [19]: 8%; Activity [20]: 56.2%; Activity [21]: 14.7%; Activity [22]: 29.7%; Activity [23]: 5.8%; Activity [24]: 48.9% |
